Measured values taken from PMC6151561, “Rapid Identification of Dipeptidyl Peptidase-IV (DPP-IV) Inhibitory Peptides from Ruditapes philippinarum Hydrolysate” (Molecules : A Journal of Synthetic Chemistry and Natural …, 2017).
No end group written: not given here.

What was measured:
DPP-IV enzyme = target: T1, DPP-IV enzyme (Sus scrofa, UniProt P22411); assay: Lineweaver-Burk double-reciprocal plot, mode of DPP-IV inhibition; type: biochemical, porcine; conditions: Figure 7
T1 construct: purchased Sigma Chemical Co. (St. Louis, MO, USA)
T1 sequence (P22411 whole entry): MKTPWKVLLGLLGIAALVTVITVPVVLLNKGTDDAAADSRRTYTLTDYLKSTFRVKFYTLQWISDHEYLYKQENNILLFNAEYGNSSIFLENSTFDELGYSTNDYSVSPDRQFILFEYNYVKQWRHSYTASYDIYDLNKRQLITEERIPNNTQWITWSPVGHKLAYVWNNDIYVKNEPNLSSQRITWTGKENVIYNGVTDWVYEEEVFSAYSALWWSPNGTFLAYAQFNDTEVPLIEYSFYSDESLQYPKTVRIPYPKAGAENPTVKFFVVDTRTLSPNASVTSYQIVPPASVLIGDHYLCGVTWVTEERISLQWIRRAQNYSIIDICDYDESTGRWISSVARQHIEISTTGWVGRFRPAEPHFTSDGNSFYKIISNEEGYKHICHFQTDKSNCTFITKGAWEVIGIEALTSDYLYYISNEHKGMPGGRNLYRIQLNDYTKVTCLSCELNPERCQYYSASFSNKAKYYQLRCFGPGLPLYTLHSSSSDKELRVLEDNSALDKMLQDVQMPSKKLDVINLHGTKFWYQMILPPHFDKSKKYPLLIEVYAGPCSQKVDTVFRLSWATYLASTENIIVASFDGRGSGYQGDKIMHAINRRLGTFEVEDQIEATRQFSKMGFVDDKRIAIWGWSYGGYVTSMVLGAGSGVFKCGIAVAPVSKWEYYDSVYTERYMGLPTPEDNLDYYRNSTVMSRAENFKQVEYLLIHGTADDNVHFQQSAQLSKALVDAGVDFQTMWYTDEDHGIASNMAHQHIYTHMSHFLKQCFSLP
Protocol: Figure 7 Lineweaver—Burk double-reciprocal plot for DPP-IV activity in the absence and presence of four peptides at different inhibitory concentrations. […] (0, 150, and 300 μM); (C) peptide LAPSTM (0, 150, and 300 μM); (D) peptide […] (0, 250, and 500 μM); and (E) peptide FLMESH (0, 400, and 800 μM).
DPP-IV inhibitory activity was measured as previously described by Zhang with minor modifications. Briefly, a 25 μL sample (diluted in 100 mM Tris-HCl buffer at pH 8.0) was mixed with 25 μL Gly-Pro-p-nitroanilide (1.6 mM) and pre-incubated at 37 °C for 10 min. Subsequently, 50 μL of DPP-IV (8 U/L) was added and the mixture was incubated at 37 °C for 1 h. The reaction was terminated by adding 100 μL of 1 M sodium acetate buffer at pH 4.0. The absorbance of each reaction was measured at 405 nm. […] The percent DPP-IV inhibition was calculated according to the following equation: DPP-IV inhibition(%)=[1−Asample/Ablank]×100%

DPP-IV [1] = test system: DPP-IV; design: method as in PMID 26758401; conditions: heptapeptide derived from silver carp actin; cited from earlier work
porcine DPP-IV = target: T2, porcine DPP-IV (Sus scrofa, UniProt P22411); assay: DPP-IV inhibitory activity assay (Gly-Pro-p-nitroanilide substrate, absorbance 405 nm); type: biochemical; conditions: chemically synthesized peptides; diprotin A positive control
T2 construct: purchased Sigma Chemical Co. (St. Louis, MO, USA)
T2 sequence (P22411 whole entry): as above
Description: Papain (from papaya, 8 × 10^5 units/g of protein), trypsin (from porcine pancreas, 2.5 × 10^5 units/g of protein), pepsin (from porcine gastric mucosa, 1 × 10^4 units/g of protein), flavourzyme (from […], 2 × 10^4 units/g of protein), and alcalase (from Bacillus licheniformis, 2 × 10^5 units/g of protein) were purchased from […] Biological Tech., Ltd. (Nanjing, China). […] (St. Louis, MO, USA). Mass spectrometry (MS)-grade water, acetonitrile (ACN), and trifluoroacetic acid (TFA) were purchased from Tedia Company Inc. (Fairfield, CT, USA). All other reagents were obtained from Sigma. All reagents were of analytical grade. DPP-IV inhibitory activity was measured as previously described by Zhang with minor modifications. Briefly, a 25 μL sample (diluted in 100 mM Tris-HCl buffer at pH 8.0) was mixed with 25 μL Gly-Pro-p-nitroanilide (1.6 mM) and pre-incubated at 37 °C for 10 min. […] The reaction was terminated by adding 100 μL of 1 M sodium acetate buffer at pH 4.0. The absorbance of each reaction was measured at 405 nm. Diprotin A ([…]) was used as a reference inhibitor. The percent DPP-IV inhibition was calculated according to the following equation: […] The DPP-IV inhibitory activity of these chemically synthesized peptides was determined as described in Section 3.3.

DPP-IV [2] = test system: DPP-IV; design: method as in PMID 25577052; conditions: read-out: DPP-IV inhibitory activity IC50; cited from earlier work

Row | Compound | mode of inhibition of DPP-IV enzyme (DPP-IV enzyme) | DPP-IV inhibitory effect (DPP-IV [1]) | IC50 (porcine DPP-IV) | IC50 (DPP-IV [2])
1 | CC[C@H](C)[C@H](N)C(=O)N1CCC[C@H]1C(=O)N[C@H](C(=O)O)[C@@H](C)CC [diprotin A, Ile-Pro-Ile, reference compound] | competitive inhibitor |  |  | 
2 | ALAPSTM [heptapeptide derived from silver carp actin, from the literature] |  | weak DPP-IV inhibitory effect |  | 
3 | FAGDDAPR [FAGDDAPR] | competitive/non-competitive mixed-type inhibition mode |  | 169 µM | 
4 | FAGDDAPRA [FAGDDAPRA] | competitive/non-competitive mixed-type inhibition mode |  | 393 µM | 
5 | FLMESH [FLMESH] | competitive/non-competitive mixed-type inhibition mode |  | > 500 µM | 
6 | LAPSTM [LAPSTM] |  |  | 141 µM | 
7 | Leu-Ala |  |  |  | 91 µM
